The record followed here is ChEMBL document CHEMBL3507680, “University of Dundee, Gates Library screen for HepG2 cell viability”.

The series in a line: Human HepG2 cell viability assay in 384 well format. On the set-up: dose 125 nL, time 70.5 hour; concentration not given beside the values. The conditions noted are these: HepG2 cells, read-out: Inhibition. In kind it is toxicity, cell-based.

As to `CC(C)Nc1ncnc2c1CCN(C(=O)CC1CCCC1)CC2`, the cytotoxicity at 70.5 h turned out to be 9.38%.
With `Cc1ccsc1C(=O)N1CCc2ncnc(NC(C)C)c2CC1`, the cytotoxicity at 70.5 h was -7.7%.
To `O=C(c1ccncn1)N1C[C@H]2CCC[C@@]2(COCC2CCOCC2)C1` belongs -14.6%; to `Cc1nc(COC[C@H]2CCC[C@]23CN(C2CCOC2)CCO3)cs1` (stereo partly drawn), 22.4%.
As for `O=C(NCC1CC1)C1CN(C(=O)Nc2ccccc2)CC12CCOCC2` (stereo not drawn), the cytotoxicity at 70.5 h is -5.6%.
`CC(C)NC(=O)c1cc2c(c3ccccc3n2C)n1C(=O)N(C)C`: the cytotoxicity at 70.5 h was -9.14%.
On to `CC(C)NC(=O)C1CN(C(=O)c2ccccc2)CC12CCOCC2` (stereo not drawn), for which the cytotoxicity at 70.5 h is -5.57%.
Take `O=C(c1cccnc1)N1CCC2(CC1)CN(c1ccccn1)CCO2`: the cytotoxicity at 70.5 h is -13.7%.
`COc1cc(N2C[C@H]3CCC[C@@H](CN4CCCC4)[C@H]3C2)ncn1`: the cytotoxicity at 70.5 h is -8.91%.
For `O=C1CC2(CCN(Cc3ccsc3)C2)CN1c1ccc2c(c1)OCO2` (stereo not drawn), the cytotoxicity at 70.5 h amounted to 10.9%.
Turning to `O=C(NCCN1CCCCC1=O)C1CCC(=O)N(C2CCCC2)C1` (stereo not drawn), the cytotoxicity at 70.5 h is -3.21%.
Consider `CCn1c(C2CCN(C(=O)c3cc(CC(C)C)no3)CC2)nn(C)c1=O`, for which the cytotoxicity at 70.5 h came out at 3.74%.
Take `O=C(CN1C(=O)CCNC1=O)N1CCOC(c2ccc(Cl)c(Cl)c2)C1` (stereo not drawn): the cytotoxicity at 70.5 h is -10.7%.
Regarding `CCn1c(N)nc2cc(C(=O)N3CCN(CC(F)(F)F)CC3)cnc21`, the cytotoxicity at 70.5 h was -13%.
Take `COc1cccc(-n2c(SCC(=O)O)nnc2-c2cn[nH]c2)c1`: the cytotoxicity at 70.5 h was -3.32%.
As for `CCc1nnc(CN(CC)C(=O)C(C)n2ccnc2C(C)C)o1` (stereo not drawn), the cytotoxicity at 70.5 h is -5.37%.
Take `COCCn1cnnc1CN(C)c1nc(N)nc2c1CCCC2`: the cytotoxicity at 70.5 h amounted to 3.03%.
With `CC1=C(C(=O)N2CCOC(Cc3cccc(C(F)(F)F)c3)C2)OCCO1` (stereo not drawn), the cytotoxicity at 70.5 h is -6.57%.
On to `Cc1ncsc1CCN(C)Cc1cc2n(n1)CCN(Cc1ncc[nH]1)C2`, for which the cytotoxicity at 70.5 h amounted to 47.1%.
To `COC(=O)CNC(=O)N1CCC2(CC1)CC(c1ccccc1)CN(C)C2` (stereo not drawn) belongs 15.9%; to `CC(C)Oc1ccc(CN2CCN3CCN(C)CC3C2)cc1CO` (stereo not drawn), -5.57%.
As for `O=C1CC2(CCN(CCCO)CC2)CN1Cc1ccc(F)c(F)c1`, the cytotoxicity at 70.5 h was -5%.
With `COc1cccc(OC2CN(C(=O)c3cc(CC(C)C)nn3C)C2)c1`, the cytotoxicity at 70.5 h was -1.49%.
For `CCn1c(C2CCCN(C(=O)C(C)(C)OC)C2)nn(CCN(C)C)c1=O` (stereo not drawn), the cytotoxicity at 70.5 h is -1.55%.
For the compound `CC(C)n1cccc1C(=O)N1CC[C@@H](NC(=O)c2ccccn2)[C@H](O)C1`, the cytotoxicity at 70.5 h was -14.5%.
`Cn1c(CN2CCC(OCc3cccnc3)CC2)cc2ccccc21`: the cytotoxicity at 70.5 h amounted to 1.71%.
In the case of `CC(O)c1cn(CC2CCN(C(=O)CN3CCCC3=O)CC2)nn1` (stereo not drawn), the cytotoxicity at 70.5 h is -10.1%.
Consider `CCC(=O)N1CCN(C(=O)Nc2ccc(Cl)cc2)[C@H]2CS(=O)(=O)C[C@H]21`, for which the cytotoxicity at 70.5 h is -14.3%.
In the case of `COc1ccccc1N1CCN(C(=O)CCc2nncn2C)C(C)C1` (stereo not drawn), the cytotoxicity at 70.5 h was 17.3%.
With `Cc1n[nH]c(C)c1CCN(C)C(=O)c1ccc(CN2CCCCC2)cc1`, the cytotoxicity at 70.5 h amounted to 34.3%.
On to `Cn1ccnc1CN1CCC(c2ccnc(-c3cccc(O)c3)c2)C1` (stereo not drawn), for which the cytotoxicity at 70.5 h is -1.18%.
Consider `COCCn1ccnc1C1CCN(c2cccc(C(=O)O)n2)CC1`, for which the cytotoxicity at 70.5 h is -3.81%.
To `CC1CCN(S(=O)(=O)N2C[C@H](c3ccccc3)[C@@H](N)C2)CC1` belongs 27.7%.
Turning to `COCCCN1CC2(CCCN(c3ncnc4[nH]cnc34)C2)CCC1=O` (stereo not drawn), the cytotoxicity at 70.5 h is -6.06%.
As to `COc1ccccc1CCC(=O)N1C[C@H](c2ccccc2)[C@@H](N)C1`, the cytotoxicity at 70.5 h is -8.71%.
To `COc1cccc(-c2nc3c([nH]2)CCNC3)c1F` belongs -12.1%; to `Cc1cc(-c2cc(S(=O)(=O)N3C[C@H](C4CC4)[C@@H](N)C3)c(C)s2)[nH]n1`, -9.13%.
Regarding `CC(C)CC(NC(=O)c1cc(C2CC2)n[nH]1)c1ncnn1C` (stereo not drawn), the cytotoxicity at 70.5 h worked out at 20.9%.
With `COc1ccccc1CN1C(=O)O[C@@H]2CN(CC3CC3)C[C@@H]21`, the cytotoxicity at 70.5 h was -0.52%.
To `CCOc1ccc(C(=O)N2C[C@H]3CC[C@@H]2CN(C(=O)C2CCC2)C3)cc1` belongs -0.418%; to `O=C(CSCC1CC1)N1CCCN(c2ccc(F)cc2)CC1`, -7.69%.
Regarding `CC1(Cc2ccc3c(c2)OCO3)CCCN(S(=O)(=O)N2CCCC2)C1` (stereo not drawn), the cytotoxicity at 70.5 h was 0.304%.
Regarding `CCCn1ccnc1CN1CCC(Oc2ccc(Cl)cc2)(C(=O)O)CC1`, the cytotoxicity at 70.5 h was -10.4%.
For the compound `Cc1cc(N(C)CCN(C)C2CCCC2)n2nc(C)cc2n1`, the cytotoxicity at 70.5 h was -1.99%.
To `COc1ccc(OCc2cc(C(=O)N3CCC(O)CC3)n[nH]2)c(Cl)c1` belongs -5.72%; to `Cc1nn(C)cc1-c1ccnc(N2CCSCC2)n1`, -1.53%; to `Cn1ncnc1-c1ccnc(NCc2ccncc2)n1`, -13.8%.
With `Cc1cccc(C(Nc2nccc(-c3ccc(C)nc3C)n2)C2CC2)n1` (stereo not drawn) the figure was -3.12%; with `Cc1c[nH]c(CN2CCCCC2CCn2ccnc2C)c(C)c1=O` (stereo not drawn), -8.38%.
Consider `O=C1N(Cc2ccc(F)c(F)c2)CCCC1(O)CNCc1cccnc1` (stereo not drawn), for which the cytotoxicity at 70.5 h is -4.19%.
On to `CCC(C)N(Cc1ccc(C)cc1)Cc1c[nH]c(C)n1` (stereo not drawn), for which the cytotoxicity at 70.5 h was -5.02%.
On to `COc1ccc(CN2CCn3cncc3C2)cc1Cn1cncn1`, for which the cytotoxicity at 70.5 h was -5.89%.
Take `CCOc1ccc(C(=O)N2CCC(Oc3ccccc3)(C(=O)O)CC2)o1`: the cytotoxicity at 70.5 h is -3.49%.
Take `c1ccc(Cc2noc(-c3ccc(NCC4CCCCO4)nc3)n2)cc1` (stereo not drawn): the cytotoxicity at 70.5 h was determined as 26.1%.
On to `Cc1ncc(S(C)(=O)=O)c(N2Cc3ccccc3C2)n1`, for which the cytotoxicity at 70.5 h was 2.76%.
With `O=C(O)c1cc(-n2cc3c(n2)CCC3)cc(S(=O)(=O)NC2CCCC2)c1` the figure was 26.3%.
Consider `COCC1CN(CC2CC2)Cc2nccn2C1` (stereo not drawn), for which the cytotoxicity at 70.5 h was -6.11%.
On to `O=C1[C@H]2CN(Cc3ccco3)C[C@H]2CN1c1ccsc1`, for which the cytotoxicity at 70.5 h was -11.1%.
For the compound `Cc1noc(C)c1CN1CC[C@H]2OCC[C@@]2(C(=O)N(C)C)C1`, the cytotoxicity at 70.5 h was -10.5%.
On to `CN1CCO[C@H]2CN(C(=O)c3ccoc3)C[C@H]21`, for which the cytotoxicity at 70.5 h was -7.03%.
For the compound `COCC(=O)N1CCC2(CC1)CN(c1ccccn1)CCO2`, the cytotoxicity at 70.5 h was -7.15%.
Turning to `COCCN1CCOCC12CCN(C(=O)c1ccncc1)CC2`, the cytotoxicity at 70.5 h was -9.1%.
To `COCCN1CCOCC12CCN(C(=O)c1cccnc1)CC2` belongs -8.13%.
Regarding `Cn1cc(N2CC3(CCN(Cc4ccsc4)CC3)OCC2=O)cn1`, the cytotoxicity at 70.5 h turned out to be 13.1%.
To `COCCNC(=O)[C@@]12CCO[C@@H]1CCN(Cc1ccncc1)C2` belongs -10.2%.
As to `O=C1CC2(CCN(Cc3ccncc3)C2)CN1c1ccc2c(c1)OCO2` (stereo not drawn), the cytotoxicity at 70.5 h came out at 30%.
Regarding `COCCN(C)C1COC2(CCN(Cc3ccccn3)CC2)C1` (stereo not drawn), the cytotoxicity at 70.5 h amounted to 11.6%.
With `CN1CCN(CC2CN(CC3CC3)Cc3nccn3C2)CC1` (stereo not drawn) the figure was -6.02%.
